Measured values published in patent US20030044399A1, “Method of treatment” (SmithKline Beecham Corporation, priority 1998, published 2003).
Like-named read-outs stand apart in the source and are kept apart here.

Legend:
[1] = target: Rhodazain (Trypanosoma brucei rhodesiense, UniProt Q95PM0); test: Cysteine protease inhibition, progress curve method, rhodazain; format: biochemical, Trypanosoma brucei rhodesiensi; settings: 10 uM Cbz-Leu-Arg-AMC, 100 mM Na acetate pH 5.5, 5 mM cysteine
[2] = target: Cruzain (Trypanosoma cruzi, UniProt P25779); test: Cysteine protease inhibition, progress curve method, cruzain; format: biochemical; settings: 4 uM Ac-Lys-Glu-Lys-Leu-Arg-AMC, 100 mM Na acetate pH 5.5, 5 mM cysteine; read-out: Cruzain Ki
Method in brief: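 Buffer was 100 mM sodium acetate pH 5.5 with 5 mM cysteine and 2% DMSO, at ambient temperature; reactions started with enzyme, and AMC formation was followed for 20–30 min. Substrates: Leishmania and Schistosoma, 10 uM Cbz-Phe-Arg-AMC; falcipain, 10 uM Cbz-Leu-Arg-AMC; cruzain, 4 uM Ac-Lys-Glu-Lys-Leu-Arg-AMC. Linear curves gave Ki,app; curved ones gave kobs/[I].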

Chain of Rhodazain (Q95PM0 entry or part of it): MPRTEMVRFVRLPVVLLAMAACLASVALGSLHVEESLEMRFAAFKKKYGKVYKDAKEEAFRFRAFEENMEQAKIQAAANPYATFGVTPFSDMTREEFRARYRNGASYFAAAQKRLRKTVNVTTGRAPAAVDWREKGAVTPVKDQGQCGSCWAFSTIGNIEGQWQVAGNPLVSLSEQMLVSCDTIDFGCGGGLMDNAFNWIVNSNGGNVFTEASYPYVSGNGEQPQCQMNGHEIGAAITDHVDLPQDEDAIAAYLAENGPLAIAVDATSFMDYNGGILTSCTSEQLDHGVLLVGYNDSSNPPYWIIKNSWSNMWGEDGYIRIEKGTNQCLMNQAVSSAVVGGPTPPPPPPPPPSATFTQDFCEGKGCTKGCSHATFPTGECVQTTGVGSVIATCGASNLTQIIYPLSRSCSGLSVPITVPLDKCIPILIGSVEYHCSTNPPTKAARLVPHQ
Chain of Cruzain (P25779 123-337): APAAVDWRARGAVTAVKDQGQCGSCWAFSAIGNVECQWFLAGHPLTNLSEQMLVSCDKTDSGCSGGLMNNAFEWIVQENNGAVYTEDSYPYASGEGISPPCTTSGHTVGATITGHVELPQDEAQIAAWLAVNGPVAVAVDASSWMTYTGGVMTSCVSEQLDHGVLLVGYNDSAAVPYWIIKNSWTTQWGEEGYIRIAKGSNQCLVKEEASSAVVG

Compound | Ki ([1]; Rhodazain Ki (nM)) [nM] | Ki [2] [nM] | Ki ([1]; read-out: Rhodazain Ki) [nM]
Cc1cccnc1S(=O)(=O)N1CCC[C@@H](NC(=O)[C@@H](CC(C)C)NC(=O)c2oc3ccccc3c2C)C(=O)C1 (stereo in doubt) [Example 161, 3-Methyl-benzofuran-2-carboxylic acid {(S)-3-methyl-1-[1-(3-methyl-pyridine-2-sulfonyl)-3-oxo-azepan-4-ylcarbamoyl]-butyl}amide] | 6.4 | 7.8 | –
Cc1ccc2oc(C(=O)N[C@@H](CC(C)C)C(=O)NC3CCCN(S(=O)(=O)c4cccc[n+]4[O-])CC3=O)c(C)c2c1 (stereo partly drawn) [Example 201, 3,5-Dimethyl-benzofuran-2-carboxylic acid {(S)-3-methyl-1-[3-oxo-1-(1-oxy-pyridine-2-sulfonyl)-azepan-4-ylcarbamoyl]-butyl}-amide] | – | 10 | 7.6
Cc1c(C(=O)N[C@@H](CC(C)C)C(=O)N[C@H]2CCCN(C(=O)Nc3ccccc3F)CC2=O)oc2ccccc12 [Example 216, 3-Methyl-benzofuran-2-carboxylic acid {(S)-1-[1-(2-fluoro-phenylcarbamoyl)-3-oxo-azepan-4-ylcarbamoyl]-3-methyl-butyl}-amide] | 3.4 | 6.9 | –
CC(C)C[C@@H](NC(=O)c1ccc2ncccc2c1)C(=O)N[C@@H]1CCCN(S(=O)(=O)c2ccccn2)CC1=O (stereo in doubt) [Example 25, Quinoline-6-carboxylic acid {(S)-3-methyl-1-[3-oxo-1-(pyridine-2-sulfonyl)-azepan-4-ylcarbamoyl]-butyl}amide] | 8 | 8.3 | –
Cc1c(C(=O)N[C@@H](CC(C)C)C(=O)N[C@@H]2CCCN(S(=O)(=O)c3cccs3)CC2=O)oc2ccccc12 [Example 145, 3-Methyl-benzofuran-2-carboxylic acid-{(S)-3-methyl-1-[3-oxo-1-(thiophene-2-sulfonyl)-azepan-4-ylcarbamoyl]-butyl}-amide] | 9.4 | 6.2 | –
CC(C)C[C@@H](NC(=O)c1ccc2ccccc2n1)C(=O)N[C@@H]1CCCN(S(=O)(=O)c2ccccn2)CC1=O (single isomer, unassigned) [Example 151] | 6.1 | 7.1 | –
CC(C)C[C@@H](NC(=O)c1ccc2c(c1)OCO2)C(=O)N[C@@H]1CCCN(S(=O)(=O)c2cccc[n+]2[O-])CC1=O [Example 55, Benzo[1,3]dioxole-5-carboxylic acid {(S)-3-methyl-1-[3-oxo-1-(1-oxy-pyridine-2-sulfonyl)-azepan-4-ylcarbamoyl]-butyl}amide] | 7.3 | 12 | –
CC(C)CC(NC(=O)c1cc2ccccc2n1C)C(=O)NC1CCCN(S(=O)(=O)c2cccs2)CC1=O [Example 148, 1-Methyl-1-H-indole-2-carboxylic acid-{(S)-3-methyl-1-[3-oxo-1-(thiophene-2-sulfonyl)-azepan-4-ylcarbamoyl]-butyl}-amide] | 23 | 8.2 | –
CC(C)C[C@H](NC(=O)c1cc2ccccc2o1)C(=O)N[C@H]1C[C@H](C)CN(S(=O)(=O)c2ccccn2)CC1=O (single isomer, unassigned) [Example 173] | 2.2 | 2 | –
Cc1c(C(=O)NC(CC(C)C)C(=O)N[C@H]2CCCN(S(=O)(=O)c3cccc[n+]3[O-])CC2=O)oc2cc(F)ccc12 (single isomer, unassigned) [Example 196] | 6.8 | 11 | –
CC(C)C[C@H](NC(=O)c1cc2ccccc2o1)C(=O)N[C@H]1C[C@H](C)CN(S(=O)(=O)c2ccccn2)CC1=O (single isomer, unassigned) [Example 167] | 4 | 3.5 | –
5,6-Dimethoxy-benzofuran-2-carboxylic acid {(S)-3-methyl-1-[3-oxo-1-(1-oxy-pyridine-2-sulfonyl)-azepan-4-ylcarbamoyl]-butyl}amide [Example 48] | – | 19 | 4.2
5-(2-Morpholin-4-yl-ethoxy)-benzofuran-2-carboxylic acid {(S)-3-methyl-1-[3-oxo-(1-oxy-pyridine2-sulfonyl)-azepan-4-ylcarbamoyl]-buty}-amide [Example 116] | – | 4.4 | 3.2
